Data from article PMC8467136, “Enabling Efficient Folding and High-Resolution Crystallographic Analysis of Bracelet Cyclotides” (Molecules, 2021).
Bridge positions count the residues as written; N and C are the ends. Peptide text beside a SMILES is read from it.

What was measured:
[1] = test system: POPC/POPE (80:20) model membrane; experiment: Membrane binding to POPC/POPE lipid bilayers by surface plasmon resonance (SPR); conditions: BIAcore T200, L1 chip, POPC/POPE (80:20) bilayer, 10 mM HEPES, 150 mM NaCl; for P/L Max, peptide-to-lipid maximum binding value: pH 7.4, injection 180 s, dissociation 600 s, nonlinear regression; for Kd: pH 7.4, nonlinear regression, read-out: KD, peptide concentration required to achieve half-maximum binding at equilibrium
Description: Cyclotides are reported to exert their biological activities via membrane binding, particularly by selective binding to lipids containing phosphatidylethanolamine (PE) headgroups. Therefore, to evaluate the functional impact of the single mutation on bracelet cyclotides, the membrane-binding ability of these variants towards PE-containing lipid bilayers was examined using surface plasmon resonance (SPR). The model membrane comprising 80% 1-palmitoyloleoyl-phosphatidylcholine (POPC) and 20% 1-palmitoyloleoyl-phosphatidylethanolamine (POPE) was used. Binding affinity was evaluated by the peptide-to-lipid maximum binding value (P/L max, mol/mol) and the peptide concentration required to achieve half-maximum binding at equilibrium (KD value, μM). […] The negative effect of the [I11G] bracelet cyclotide mutation on lipid binding was expected, as the mutation reduces surface hydrophobicity, a previously reported determinant of membrane binding. The SPR dose-response curves and sensorgrams are shown in Figure S4 in Supplementary Material.
The binding affinity of bracelet cyclotides and their variants toward lipid bilayers was studied using SPR, as described previously. Two synthetic lipids, 1-palmitoyl-2-oleoyl-glycero-3-phosphocholine (POPC) and 1-palmitoyl-2-oleoyl-sn-glycero-3-phosphoethanolamine (POPE), were purchased from Avanti Polar Lipids (USA). Briefly, homogenous, small, unilamellar vesicles composed of POPC/POPE (80:20, mol/mol) were obtained by extruding the vesicle suspension through a 50-nm pore size polycarbonate membrane. L1 sensor chips and BIAcore T200 instrument were used (Cytiva, Marlborough, MA, USA). After the lipid was loaded and formed a bilayer membrane on the L1 chip, peptide solutions were injected over the lipid surface for 180 s and the dissociation was monitored for 600 s. Peptides were tested at concentrations ranging from 4–32 μM. Peptide-to-lipid molar ratio and KD values were calculated by nonlinear regression using GraphPad Prism software (version 8.3.1). Peptide solutions and lipid vesicles were prepared in HEPES buffer (10 mM HEPES, 150 mM NaCl, pH 7.4, filtered) for SPR studies.

HeLa cells = experiment: Cytotoxicity against HeLa cells, resazurin assay; assay type: cell-based; conditions: 5000 cells/well, 24-h incubation with peptide, then resazurin 18 h, triplicate, mean ± SEM
Protocol: To further confirm the activity of these mutants, their cytotoxicity against HeLa cancer cells was evaluated along with wild-type bracelet cyclotides. […] Of the four [I11G] mutants, the hyen D analogue had the highest activity, possibly because hyen D has one more hydrophobic residue in loop 3 compared to the other three cyclotides, which may contribute to its higher lipid-binding capacity (P/L max = 0.37) and help offset the hydrophobicity loss caused by the [I11G] mutation.
The cytotoxicity of the peptides was evaluated using the resazurin assay, as described previously. HeLa cells were seeded at 5000 cells/well in a 96-well, flat-bottomed plate one day prior to the experiments. Peptide solutions were prepared in water and incubated with HeLa cells at concentrations ranging from 16 to 0.125 μM or 8 to 0.063 μM in triplicate (final concentrations). Water and 1% Triton X-100 (TX) were applied as negative and positive control, respectively. After 24-h incubation, 10 μL of resazurin (0.05%, w/v) was added and incubated with cells for another 18 h. The absorbance was measured at 540 and 620 nm on a microplate reader (Infinite M1000 Pro microplate reader, Tecan, Switzerland). The percentage of cell death was quantified by calculating the absorbance ratio, R (R = absorbance at 620/540), and applying the following equation: % Cell death = (Rsample − RH2O)/(RTX − RH2O) × 100. Data were analyzed with GraphPad Prism software (version 8.3.1) using Specific binding with Hill slope algorithm.

## CC[C@H](C)[C@@H]1NC(=O)[C@@H]2CSSC[C@@H]3NC(=O)[C@H](C(C)C)NC(=O)[C@H](CCCCN)NC(=O)[C@H](CC(=O)O)NC(=O)[C@H]([C@@H](C)O)NC(=O)[C@@H]4CSSC[C@H](NC(=O)[C@H](CO)NC(=O)[C@H](CCC(=O)O)NC(=O)CNC(=O)[C@H](CSSC[C@H](NC(=O)CNC(=O)[C@H]([C@@H](C)CC)NC(=O)[C@H](C(C)C)NC(=O)CNC(=O)[C@H](CO)NC1=O)C(=O)N[C@@H](CO)C(=O)N4)NC(=O)[C@@H]1CCCN1C(=O)[C@H]([C@@H](C)O)NC(=O)CNC(=O)[C@H](CC(N)=O)NC(=O)[C@H](CC(C)C)NC(=O)[C@H](Cc1ccc(O)cc1)NC3=O)C(=O)N[C@@H](C(C)C)C(=O)N[C@@H](Cc1ccc(O)cc1)C(=O)N[C@@H](CC(C)C)C(=O)N1CCC[C@H]1C(=O)N2 [[I11L]kB5] (cyclo(CGESCVYLPCISGVIGCSCTDKVCYLNGTP); disulfide 1-17, 5-19, 10-24)
[1]
  P/L Max, peptide-to-lipid maximum binding value: 0.22 ± 0.00 mol/mol
  Kd: 4.95 ± 0.12 µM
HeLa cells
  CC50 on HeLa (half maximum cytotoxic concentration): 4.31 ± 0.48 µM

## CC[C@H](C)[C@@H]1NC(=O)[C@H](C)NC(=O)[C@H](CO)NC(=O)[C@H](CO)NC(=O)[C@H]([C@@H](C)CC)NC(=O)[C@@H]2CSSC[C@@H]3NC(=O)[C@H](C(C)C)NC(=O)[C@H](CCCCN)NC(=O)[C@H](CO)NC(=O)[C@H](CCCCN)NC(=O)[C@@H]4CSSC[C@H](NC(=O)[C@H](CO)NC(=O)[C@H](CCC(=O)O)NC(=O)CNC(=O)[C@H](CSSC[C@H](NC(=O)CNC1=O)C(=O)N[C@@H](CO)C(=O)N4)NC(=O)[C@@H]1CCCN1C(=O)[C@H]([C@@H](C)CC)NC(=O)CNC(=O)[C@H](CC(N)=O)NC(=O)[C@H](CCCNC(=N)N)NC(=O)[C@H](Cc1ccc(O)cc1)NC3=O)C(=O)N[C@@H](C(C)C)C(=O)N[C@@H](Cc1c[nH]c3ccccc13)C(=O)N[C@@H]([C@@H](C)CC)C(=O)N1CCC[C@H]1C(=O)N2 [cyO2, cycloviolacin O2, reference compound] (cyclo(AIGCSCKSKVCYRNGIPCGESCVWIPCISS); disulfide 4-18, 6-22, 11-27)
[1]
  P/L Max, peptide-to-lipid maximum binding value: 0.28 ± 0.00 mol/mol
  Kd: 3.9 ± 0.11 µM
HeLa cells
  CC50 on HeLa (half maximum cytotoxic concentration): 1.05 ± 0.06 µM

## CC[C@H](C)[C@@H]1NC(=O)CNC(=O)[C@H](CC(N)=O)NC(=O)[C@H](CCCNC(=N)N)NC(=O)[C@H](Cc2ccc(O)cc2)NC(=O)[C@@H]2CSSC[C@@H]3NC(=O)[C@@H]4CCCN4C(=O)[C@H]([C@@H](C)CC)NC(=O)[C@H](Cc4c[nH]c5ccccc45)NC(=O)[C@H](C(C)C)NC(=O)[C@@H]4CSSC[C@H](NC(=O)[C@H](CO)NC(=O)[C@H](CSSC[C@H](NC(=O)[C@@H]5CCCN5C1=O)C(=O)NCC(=O)N[C@@H](CCC(=O)O)C(=O)N[C@@H](CO)C(=O)N4)NC(=O)CNC(=O)[C@H](C(C)C)NC(=O)[C@H](C)NC(=O)[C@H](CO)NC(=O)[C@H]([C@@H](C)O)NC(=O)[C@H](CC(C)C)NC3=O)C(=O)N[C@@H](CCCCN)C(=O)N[C@@H](CO)C(=O)N[C@@H](CCCCN)C(=O)N[C@@H](C(C)C)C(=O)N2 [cyO9, cycloviolacin O9, reference compound] (cyclo(AVGCSCKSKVCYRNGIPCGESCVWIPCLTS); disulfide 4-18, 6-22, 11-27)
[1]
  P/L Max, peptide-to-lipid maximum binding value: 0.30 ± 0.01 mol/mol
  Kd: 4.83 ± 0.17 µM
HeLa cells
  CC50 on HeLa (half maximum cytotoxic concentration): 2.35 ± 0.13 µM
